In ChEMBL document CHEMBL1136154, “Anti-atherogenic effects of 3,4-Dihydroxy hydrocinnamides” (Bioorg Med Chem Lett, 2003):

Tests used:
Format in all cases: functional, organism-based
[1] = species: Oryctolagus cuniculus; experiment: (§1) HDL-cholesterol-fed rabbit
[2] = species: Oryctolagus cuniculus; experiment: Triglyceride after 0 week of cholesterol-fed rabbit
[3] = species: Oryctolagus cuniculus; experiment: as §1; remark: listed apart in the source
[4] = species: Oryctolagus cuniculus; experiment: (§2) Total cholesterol-fed rabbit
[5] = species: Oryctolagus cuniculus; experiment: as §2; remark: listed apart in the source
[6] = species: Oryctolagus cuniculus; experiment: Triglyceride after 8 weeks of cholesterol-fed rabbit

COC(=O)C(C)NC(=O)CCc1ccc(O)c(O)c1 (configuration not stated)
Plasma lipids [1]: 81 mg/dL
Plasma lipids [2]: 53 mg/dL
Plasma lipids [3]: 37 mg/dL
Plasma lipids [4]: 53 mg/dL
Plasma lipids [5]: 1080 mg/dL
Plasma lipids [6]: 116 mg/dL

COC(=O)C(Cc1c[nH]c2ccccc12)NC(=O)CCc1ccc(O)c(O)c1 (configuration not stated)
Plasma lipids [1]: 98 mg/dL
Plasma lipids [2]: 43 mg/dL
Plasma lipids [3]: 32 mg/dL
Plasma lipids [4]: 50 mg/dL
Plasma lipids [5]: 1070 mg/dL
Plasma lipids [6]: 104 mg/dL
